Experimental data: US12134611B2, “Compounds and compositions for treating conditions associated with NLRP activity” (Novartis AG, priority 2018, dated 2024)
pIC50: −log10 of the molar value.

Target: T1, hNLRP3 (Homo sapiens, UniProt Q96P20)
T1 construct: THP-1 cells were purchased from the American Type Culture Collection; host or cells: THP-1 cells, PMA-differentiated, stimulated with gramicidin
Experiment: IL-1β production in PMA-differentiated THP-1 cells stimulated with gramicidin (hTHP-1 assay)
Format: cell-based
Settings: read-out: NLRP3 Antagonist, hNLRP3 (THP-1, IL-1b) Normalized: GeoMean IC50
Procedure: Procedure 1: IL-1β Production in PMA-Differentiated THP-1 Cells Stimulated with Gramicidin.
THP-1 cells were purchased from the American Type Culture Collection and sub-cultured according to instructions from the supplier. […] Prior to the experiment, compounds were dissolved in dimethyl sulfoxide (DMSO) to generate a 30 mM stock. […] DMSO was backfilled in the plate to achieve a final DMSO assay concentration of 0.37%. The plate was then sealed and stored at room temperature until required.
THP-1 cells were treated with PMA (Phorbol 12-myristate 13-acetate) (20 ng/ml) for 16-18 hours. On the day of the experiment the media was removed and adherent cells were detached with trypsin for 5 minutes.
Procedure 2: IL-1β Production in PMA-Differentiated THP-1 Cells Stimulated with Gramicidin.
THP-1 cells were purchased from the American Type Culture Collection and sub-cultured according to instructions from the supplier. […] Prior to the experiment THP-1 were treated with PMA (Phorbol 12-myristate 13-acetate) (20 ng/ml) for 16-18 hours. Compounds were dissolved in dimethyl sulfoxide (DMSO) to generate a 30 mM stock. On the day of the experiment the media was removed and adherent cells were detached with trypsin for 5 minutes. […] Final DMSO concentration was at 0.37%. Cells were incubated with compounds for 1 hour and then stimulated with gramicidin (5 μM) (Enzo) for 2 hours. Plates were then centrifuged at 340 g for 5 min. Cell free supernatant (40 μL) was collected using a 96-channel PlateMaster (Gilson) and the production of IL-1β was evaluated by HTRF (cisbio).
1. Experimental procedure
1.2 Compound Preparation • Prepare the 3-fold serial dilution of the compounds with DMSO in a 384-well LDV Microplate using TECAN EVO system to generate the compound source plate with 10 concentrations. Top concentration is 30 mM. FIG. 5 depicts the layout of the microplate.
FIG. 5 depicts the layout of the plates: HC: 100 μM CRID3 (MCC950)+5 μM gramicidin LC: 5 μM Gramicidin.
1.5 IL-1β Detection • 1) Homogenize the 5× diluent #5 with a vortex and add 1 volume of stock solution in 4 volumes of distilled water. • 2) Thaw 20× stock solution of anti-IL1β-Cryptate-antibody and anti-IL1β XL-antibody. […] 2. Data Analysis: • 1.

T1 sequence (Q96P20 whole entry): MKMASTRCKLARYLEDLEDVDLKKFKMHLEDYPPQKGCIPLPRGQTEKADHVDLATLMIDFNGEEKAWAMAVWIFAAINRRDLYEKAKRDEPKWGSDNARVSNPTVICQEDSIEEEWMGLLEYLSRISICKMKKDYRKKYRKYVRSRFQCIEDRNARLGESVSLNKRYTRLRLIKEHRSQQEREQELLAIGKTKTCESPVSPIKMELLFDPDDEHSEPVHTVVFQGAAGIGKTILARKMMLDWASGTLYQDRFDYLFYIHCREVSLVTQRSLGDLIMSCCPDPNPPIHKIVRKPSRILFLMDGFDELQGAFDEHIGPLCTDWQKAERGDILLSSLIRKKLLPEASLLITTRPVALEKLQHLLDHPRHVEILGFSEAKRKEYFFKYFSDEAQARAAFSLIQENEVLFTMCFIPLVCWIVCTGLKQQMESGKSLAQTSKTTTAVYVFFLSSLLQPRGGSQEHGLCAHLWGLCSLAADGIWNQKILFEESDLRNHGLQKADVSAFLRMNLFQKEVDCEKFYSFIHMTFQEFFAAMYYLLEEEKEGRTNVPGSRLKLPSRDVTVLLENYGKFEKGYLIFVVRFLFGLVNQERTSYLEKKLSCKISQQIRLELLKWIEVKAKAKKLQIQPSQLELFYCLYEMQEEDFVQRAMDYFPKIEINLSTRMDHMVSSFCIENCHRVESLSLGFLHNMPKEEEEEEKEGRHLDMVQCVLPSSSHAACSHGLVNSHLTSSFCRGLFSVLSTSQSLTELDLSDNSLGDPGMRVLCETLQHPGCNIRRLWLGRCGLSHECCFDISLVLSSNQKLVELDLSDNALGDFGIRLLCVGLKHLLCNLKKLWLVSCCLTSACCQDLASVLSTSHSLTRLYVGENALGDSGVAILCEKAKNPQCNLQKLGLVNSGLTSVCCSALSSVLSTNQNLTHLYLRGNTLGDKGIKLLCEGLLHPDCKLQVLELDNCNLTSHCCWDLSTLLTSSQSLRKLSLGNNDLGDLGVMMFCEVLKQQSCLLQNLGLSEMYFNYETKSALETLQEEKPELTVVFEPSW

SMILES | pIC50
CC(C)(O)c1cccc(C2CC(=O)NS2(=O)=NC(=O)Nc2c3c(cc4c2CCC4)CCC3)c1 (stereo not drawn) [Compound 253, 1-(1,2,3,5,6,7-hexahydro-s-indacen-4-yl)-3-(5-(3-(2-hydroxypropan-2-yl)phenyl)-1-oxido-3-oxo-1l6-isothiazolidin-1-ylidene)urea] | 6.00 to 6.70
CNC(=O)c1ccc2c(c1)S(=O)(=NC(=O)Nc1c3c(cc4c1CCC4)CCC3)NC2=O (stereo not drawn) [Compound 213, 1-(((1,2,3,5,6,7-hexahydro-s-indacen-4-yl)carbamoyl)imino)-N-methyl-3-oxo-2,3-dihydro-1H-1l4-benzo[d]isothiazole-6-carboxamide 1-oxide] | 5.30 to 6.00
O=C(N=S1(=O)NC(=O)c2ccc(CNCC3CC3)cc21)Nc1c2c(cc3c1CCC3)CCC2 (stereo not drawn) [Compound 218, 1-(6-(((cyclopropylmethyl)amino)methyl)-1-oxido-3-oxo-2,3-dihydro-1l4-benzo[d]isothiazol-1-ylidene)-3-(1,2,3,5,6,7-hexahydro-s-indacen-4-yl)urea] | 6.00 to 6.70
CC(C)(O)c1ccc2c(c1)S(=O)(=NC(=O)Nc1c3c(nc4c1CCC4(C)C)CCC3)NC2=O (stereo not drawn) [Compound 118, 1-(3,3-dimethyl-1,2,3,5,6,7-hexahydrodicyclopenta[b,e]pyridin-8-yl)-3-(6-(2-hydroxypropan-2-yl)-1-oxido-3-oxo-2,3-dihydro-1l4-benzo[d]isothiazol-1-ylidene)urea] | 5.30 to 6.00
CC(C)(O)c1ccc2c(c1)S(=O)(=NC(=O)Nc1c3c(cc4c1CCC4)CCC3)NC2=O (single isomer, unassigned) [Compound 127b, (S or R)-1-(1,2,3,5,6,7-hexahydro-s-indacen-4-yl)-3-(6-(2-hydroxypropan-2-yl)-1-oxido-3-oxo-2,3-dihydro-1l4-benzo[d]isothiazol-1-ylidene)urea] | 4.52 to 5.30
CC(C)(O)c1ccc2c(c1)S(=O)(=NC(=O)Nc1c3c(cc4c1CC4)CCC3)NC2=O (stereo not drawn) [Compound 112, 1-(6-(2-hydroxypropan-2-yl)-1-oxido-3-oxo-2,3-dihydro-1l4-benzo[d]isothiazol-1-ylidene)-3-(2,4,5,6-tetrahydro-1H-cyclobuta[f]inden-3-yl)urea] | 6.00 to 6.70
CC(C)(O)c1ccc2c(c1)S(=O)(=NC(=O)Nc1c3c(cc4c1CCC4)CCC3)NC2=O (single isomer, unassigned) [Compound 127a, (R or S)-1-(1,2,3,5,6,7-hexahydro-s-indacen-4-yl)-3-(6-(2-hydroxypropan-2-yl)-1-oxido-3-oxo-2,3-dihydro-1l4-benzo[d]isothiazol-1-ylidene)urea] | 6.70 to 7.40
CC(C)(O)c1ccc2c(c1)S(=O)(=NC(=O)Cc1c3c(cc4c1CCC4)CCC3)NC2=O (stereo not drawn) [Compound 115, 2-(1,2,3,5,6,7-hexahydro-s-indacen-4-yl)-N-(6-(2-hydroxypropan-2-yl)-1-oxido-3-oxo-2,3-dihydro-1l4-benzo[d]isothiazol-1-ylidene)acetamide] | < 4.52
CN1Cc2ccccc2S1(=O)=NC(=O)Nc1c2c(cc3c1CCC3)CCC2 (stereo not drawn) [Compound 107] | < 4.52
O=C(N=S1(=O)CCCN1)Nc1c2c(cc3c1CCC3)CCC2 (stereo not drawn) [Compound 119, 1-(1,2,3,5,6,7-hexahydro-s-indacen-4-yl)-3-(1-oxido-1l6-isothiazolidin-1-ylidene)urea] | 4.52 to 5.30
O=C(N=S1(=O)NC(=O)c2ccc(Br)cc21)Nc1c2c(cc3c1CCC3)CCC2 (single isomer, unassigned) [Compound 103a, (R or S)-1-(6-bromo-1-oxido-3-oxo-2,3-dihydro-1l4-benzo[d]isothiazol-1-ylidene)-3-(1,2,3,5,6,7-hexahydro-s-indacen-4-yl)urea] | < 4.52
CC1(C)CS(=O)(=NC(=O)Nc2c3c(cc4c2CCC4)CCC3)NC1=O (single isomer, unassigned) [Compound 102b, (R or S)-1-(4,4-dimethyl-1-oxido-3-oxo-1l6-isothiazolidin-1-ylidene)-3-(1,2,3,5,6,7-hexahydro-s-indacen-4-yl)urea] | 4.52 to 5.30
O=C(N=S1(=O)CCC(Cc2ccccc2)C(=O)N1)Nc1c2c(cc3c1CCC3)CCC2 (stereo not drawn) [Compound 266, 1-(4-benzyl-1-oxido-3-oxo-1l6,2-thiazinan-1-ylidene)-3-(1,2,3,5,6,7-hexahydro-s-indacen-4-yl)urea] | 4.52 to 5.30
Cc1c(C(F)(F)F)nc2c(c1NC(=O)N=S1(=O)NC(=O)c3ccc(C(C)(C)O)cc31)CCC2 (single isomer, unassigned) [Compound 108b, (S or R)-1-(6-(2-hydroxypropan-2-yl)-1-oxido-3-oxo-2,3-dihydro-1l4-benzo[d]isothiazol-1-ylidene)-3-(3-methyl-2-(trifluoromethyl)-6,7-dihydro-5H-cyclopenta[b]pyridin-4-yl)urea] | < 4.52
CC(C)(O)c1ccc2c(c1)S(=O)(=NC(=O)Nc1c3c(nc4c1CCC4)CCC3)NC2=O (stereo not drawn) [Compound 117] | 5.30 to 6.00
O=C1CC(Cc2ccccc2)S(=O)(=NC(=O)Nc2c3c(cc4c2CCC4)CCC3)N1 (stereo not drawn) [Compound 101, 1-(5-benzyl-1-oxido-3-oxo-1l6-isothiazolidin-1-ylidene)-3-(1,2,3,5,6,7-hexahydro-s-indacen-4-yl)urea] | 5.30 to 6.00
COC(=O)Cc1ccc2c(c1)S(=O)(=NC(=O)Nc1c3c(cc4c1CCC4)CCC3)NC2=O (stereo not drawn) [Compound 209, methyl 2-(1-(((1,2,3,5,6,7-hexahydro-s-indacen-4-yl)carbamoyl)imino)-1-oxido-3-oxo-2,3-dihydro-1H-1l4-benzo[d]isothiazol-6-yl)acetate] | 4.52 to 5.30
CC(C)c1cc2c(c(C(C)C)c1CC(=O)N=S1(=O)NC(=O)c3ccc(C(C)(C)O)cc31)COC2 (single isomer, unassigned) [Compound 104a, (S or R)-2-(4,6-diisopropyl-1,3-dihydroisobenzofuran-5-yl)-N-(6-(2-hydroxypropan-2-yl)-1-oxido-3-oxo-2,3-dihydro-1l4-benzo[d]isothiazol-1-ylidene)acetamide] | < 4.52
C=C(C)c1ccc2c(c1)S(=O)(=NC(=O)Nc1c3c(cc4c1CCC4)CCC3)NC2=O (stereo not drawn) [Compound 207, 1-(1,2,3,5,6,7-hexahydro-s-indacen-4-yl)-3-(1-oxido-3-oxo-6-(prop-1-en-2-yl)-2,3-dihydro-1l4-benzo[d]isothiazol-1-ylidene)urea] | 4.52 to 5.30
CC(C)c1cc(F)cc(C(C)C)c1CC(=O)N=S1(=O)NC(=O)c2ccc(C(C)(C)O)cc21 (stereo not drawn) [Compound 109] | < 4.52

Other lines, results leading:

pIC50 | SMILES
< 4.52 | O=C(N=S1(=O)CC2(CN1)COC2)Nc1c2c(cc3c1CCC3)CCC2 (stereo not drawn) [Compound 139b]
5.30 to 6.00 | O=C1CCS(=O)(=NC(=O)Nc2c3c(cc4c2CCC4)CCC3)N1 (single isomer, unassigned) [Compound 131a, (R or S)-1-(1,2,3,5,6,7-hexahydro-s-indacen-4-yl)-3-(1-oxido-3-oxo-1l6-isothiazolidin-1-ylidene)urea]
4.52 to 5.30 | O=C(N=S1(=O)NC(=O)c2ccc(-n3cccn3)cc21)Nc1c2c(cc3c1CCC3)CCC2 (single isomer, unassigned) [Compound 211a, (S or R)-1-(1,2,3,5,6,7-hexahydro-s-indacen-4-yl)-3-(1-oxido-3-oxo-6-(1H-pyrazol-1-yl)-2,3-dihyclro-1l4-benzo[d]isothiazol-1-ylidene)urea]
4.52 to 5.30 | COC(=O)c1ccc2c(c1)S(=O)(=NC(=O)Nc1c3c(cc4c1CCC4)CCC3)NC2=O (single isomer, unassigned) [Compound 134b, methyl (S or R)-1-(((1,2,3,5,6,7-hexahydro-s-indacen-4-yl)carbamoyl)imino)-3-oxo-2,3-dihydro-1H-1l4-benzo[d]isothiazole-6-carboxylate 1-oxide]
< 4.52 | COC(=O)c1ccc2c(c1)S(=O)(=NC(=O)Nc1c3c(cc4c1CCC4)CCC3)NC2=O (single isomer, unassigned) [Compound 134a, methyl (R or S)-1-(((1,2,3,5,6,7-hexahydro-s-indacen-4-yl)carbamoyl)imino)-3-oxo-2,3-dihydro-1H-1l4-benzo[d]isothiazole-6-carboxylate 1-oxide]
6.00 to 6.70 | O=C(N=S1(=O)CC(Cc2ccccc2)C(=O)N1)Nc1c2c(cc3c1CCC3)CCC2 (single isomer, unassigned) [Compound 249a, 1-((1R,4S or 4R)-4-benzyl-1-oxido-3-oxo-1l6-isothiazolidin-1-ylidene)-3-(1,2,3,5,6,7-hexahydro-s-indacen-4-yl)urea]
5.30 to 6.00 | O=C(N=S1(=O)NC(=O)c2cccnc21)Nc1c2c(cc3c1CCC3)CCC2 (single isomer, unassigned) [Compound 223a, (S or S)-1-(1,2,3,5,6,7-hexahydro-s-indacen-4-yl)-3-(1-oxido-3-oxo-2,3-dihydro-1l4-isothiazolo[5,4-b]pyridin-1-ylidene)urea]
